From paper PMC12337661, “PIEZO1 mechanical insensitivity in generalized lymphatic dysplasia with the potential for pharmacological rescue” (iScience, 2025)

Target: T1, R2351Q mPIEZO1 (Mus musculus, UniProt E2JF22, R2351Q)
T1 construct: expressed in transfected cells
Test: Intracellular Ca2+ measurement (fura-2), T-REx-293 cells stably transfected
Assay type: cell-based
Conditions: R2351Q
Description: T-REx-293 cell line was transfected with pcDNA4/TO-mPIEZO1 constructs using Lipofectamine 2000 (Invitrogen) as above and treated with 200 μg.mL^−1 zeocin (InvivoGen) to select for stably transfected cells. At least two strongly expressing clonal cell lines were established and tested for each variant. All cell lines were maintained in Dulbecco’s Modified Eagle’s medium (Invitrogen) supplemented with 10% heat-inactivated fetal calf serum (Sigma-Aldrich), penicillin (50 units.mL^−1) and streptomycin (0.5 mg.mL^−1) (Sigma-Aldrich) and grown at 37°C in a humidified 5% CO2 incubator.
For intracellular Ca^2+ assays, cells were plated at 80–90% confluence in 96-well plates 24 h prior to recordings (6–8 × 10^4 cells per well). […] Cells were washed with SBS and incubated at room temperature for 20 min prior to recordings. Equal volumes of 2x concentrated compounds were injected to test for acute channel activation. Pre-incubation with compounds occurred during the 20 min prior to recordings. To expose cell membranes to hypo-osmolality, an equal volume of hypotonic SBS (containing only 35 mM NaCl) was injected onto the cells. Measurements were made on a fluorescence plate reader (Flexstation III, Molecular Devices) at room temperature (21 ± 2°C). Fura-2 was excited at 340 nm and 380 nm and emitted light collected at 510 nm, with measurements shown as the change in fluorescence (F) ratio (ΔF340/380).
KC41 (Dooku1) was prepared as described.[28] All purchased chemicals and solvents were used without further purification unless otherwise stated. All compounds were at least 95% pure by 1H NMR. 1H Nuclear Magnetic Resonance spectra were recorded at 500 MHz using a Bruker DRX 500 instrument or at 400 MHz using a Bruker DPX 400. 1H spectra are referenced based on the residual proton in the solvent (e.g., the CHCl3, 0.01% in 99.99% CDCl3). Coupling constants (J) are reported to the nearest 0.1 Hz. 13C NMR spectra were recorded at 125 MHz on 500 MHz spectrometers or at 100 MHz on 400 MHz spectrometers. LC-MS was performed on a Bruker Daltronics running a gradient of increasing acetonitrile (5–95%) in H2O both containing 0.1% formic acid at 1 mL.min^−1, on a short path C18 reverse phase column, detecting compounds with both a diode array detector and a Bruker mass spectrum analyser. HRMS was performed on a Bruker Daltonics micrOTOF using positive electrospray ionisation (ES+). Automated column chromatograph was carried out using a Biotage Isolera Four, using either Sfär Silica D or KP-Silica cartridges. HPLC was performed on an Agilent 1290 Infinity Series equipped with a UV detector and Hyperprep C18 reverse phase column. Key to NMR abbreviations: s (singlet), br s (broad singlet) d (doublet), dd (doublet of doublets), ddd (doublet of doublets of doublets), t (triplet), dt (doublet of triples), q (quartet), m (multiplet), ap. t (apparent triplet). For experiments, Yoda1 and its analogues were prepared as 10 mM stock solutions in 100% dimethyl sulfoxide (DMSO) before serial dilution in DMSO and final dilution in aqueous solution. Cells were exposed to 0.1% DMSO for all concentrations of the compounds from 0 to 10 μM.

T1 sequence (E2JF22 whole entry R2351Q): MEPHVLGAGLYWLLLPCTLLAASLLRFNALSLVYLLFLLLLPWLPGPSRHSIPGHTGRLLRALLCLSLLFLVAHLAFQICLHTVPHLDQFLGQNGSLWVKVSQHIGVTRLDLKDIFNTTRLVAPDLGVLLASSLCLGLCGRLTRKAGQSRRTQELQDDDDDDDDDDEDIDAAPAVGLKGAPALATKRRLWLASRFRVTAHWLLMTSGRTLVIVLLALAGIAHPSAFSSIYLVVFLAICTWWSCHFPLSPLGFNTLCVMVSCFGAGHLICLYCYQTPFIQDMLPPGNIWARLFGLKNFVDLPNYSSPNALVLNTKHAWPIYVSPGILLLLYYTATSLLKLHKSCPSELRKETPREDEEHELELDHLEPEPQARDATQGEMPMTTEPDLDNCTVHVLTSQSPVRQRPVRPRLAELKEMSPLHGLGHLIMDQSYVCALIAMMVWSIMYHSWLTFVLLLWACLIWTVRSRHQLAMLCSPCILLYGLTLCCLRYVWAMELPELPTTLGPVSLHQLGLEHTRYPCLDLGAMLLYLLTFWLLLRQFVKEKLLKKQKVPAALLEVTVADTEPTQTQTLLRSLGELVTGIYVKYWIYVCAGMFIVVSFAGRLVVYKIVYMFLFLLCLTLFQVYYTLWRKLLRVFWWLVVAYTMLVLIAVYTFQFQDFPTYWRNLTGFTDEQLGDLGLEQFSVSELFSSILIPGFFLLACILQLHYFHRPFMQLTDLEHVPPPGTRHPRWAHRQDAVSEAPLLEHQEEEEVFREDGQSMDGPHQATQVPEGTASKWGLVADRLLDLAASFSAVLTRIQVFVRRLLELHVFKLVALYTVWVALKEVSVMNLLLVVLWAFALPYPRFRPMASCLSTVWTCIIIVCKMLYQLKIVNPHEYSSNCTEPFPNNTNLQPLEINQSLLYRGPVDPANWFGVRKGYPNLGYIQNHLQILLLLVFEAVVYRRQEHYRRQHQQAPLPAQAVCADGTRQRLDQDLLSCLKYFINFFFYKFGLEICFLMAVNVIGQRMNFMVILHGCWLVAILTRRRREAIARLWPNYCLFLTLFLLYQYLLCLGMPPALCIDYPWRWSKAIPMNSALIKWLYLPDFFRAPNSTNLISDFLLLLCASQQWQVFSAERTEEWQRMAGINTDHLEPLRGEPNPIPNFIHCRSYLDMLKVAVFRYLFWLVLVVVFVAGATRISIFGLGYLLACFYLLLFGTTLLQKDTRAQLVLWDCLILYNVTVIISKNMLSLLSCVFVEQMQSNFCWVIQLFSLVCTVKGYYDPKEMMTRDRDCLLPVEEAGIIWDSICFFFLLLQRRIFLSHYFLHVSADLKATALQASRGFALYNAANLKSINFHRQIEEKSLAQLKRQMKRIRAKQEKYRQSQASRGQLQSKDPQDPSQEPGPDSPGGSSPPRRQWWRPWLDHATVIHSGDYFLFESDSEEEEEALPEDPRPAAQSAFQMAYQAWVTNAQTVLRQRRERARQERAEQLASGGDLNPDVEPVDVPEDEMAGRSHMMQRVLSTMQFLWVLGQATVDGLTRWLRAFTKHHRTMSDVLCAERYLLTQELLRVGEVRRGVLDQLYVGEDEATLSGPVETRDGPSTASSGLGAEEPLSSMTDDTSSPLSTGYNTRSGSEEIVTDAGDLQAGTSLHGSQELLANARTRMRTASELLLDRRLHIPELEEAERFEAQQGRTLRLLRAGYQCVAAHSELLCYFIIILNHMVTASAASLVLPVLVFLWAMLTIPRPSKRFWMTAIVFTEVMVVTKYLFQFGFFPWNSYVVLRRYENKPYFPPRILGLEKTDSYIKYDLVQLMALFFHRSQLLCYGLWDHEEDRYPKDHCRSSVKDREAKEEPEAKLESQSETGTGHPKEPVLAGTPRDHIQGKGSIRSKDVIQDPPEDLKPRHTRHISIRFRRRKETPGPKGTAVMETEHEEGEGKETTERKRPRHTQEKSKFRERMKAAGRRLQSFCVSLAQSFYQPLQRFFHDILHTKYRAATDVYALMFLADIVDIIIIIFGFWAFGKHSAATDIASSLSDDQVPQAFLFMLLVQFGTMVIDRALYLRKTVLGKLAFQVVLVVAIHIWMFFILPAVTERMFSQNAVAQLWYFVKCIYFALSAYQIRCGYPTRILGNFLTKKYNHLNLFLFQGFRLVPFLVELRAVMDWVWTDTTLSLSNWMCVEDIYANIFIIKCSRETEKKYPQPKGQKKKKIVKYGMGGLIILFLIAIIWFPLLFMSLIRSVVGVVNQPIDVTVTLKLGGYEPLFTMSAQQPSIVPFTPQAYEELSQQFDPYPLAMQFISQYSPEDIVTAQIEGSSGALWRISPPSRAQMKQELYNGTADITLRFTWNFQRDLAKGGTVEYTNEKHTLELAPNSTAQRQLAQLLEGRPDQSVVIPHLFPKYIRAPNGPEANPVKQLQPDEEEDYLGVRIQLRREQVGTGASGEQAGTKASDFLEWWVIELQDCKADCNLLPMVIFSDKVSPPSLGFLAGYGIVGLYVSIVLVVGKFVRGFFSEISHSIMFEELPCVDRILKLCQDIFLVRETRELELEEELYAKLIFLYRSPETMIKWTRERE

- Mean (Ca2+ signal time course, Figure 4f) (0.3 µM, time 0 s): -0.00579
- Mean (Ca2+ signal time course, Figure 4f) (0.3 µM, time 5 s): 0.00313
- Mean (Ca2+ signal time course, Figure 4f) (0.3 µM, time 10 s): -0.01466
- Mean (Ca2+ signal time course, Figure 4f) (0.3 µM, time 15 s): 0.00749
- Mean (Ca2+ signal time course, Figure 4f) (0.3 µM, time 20 s): 0.00732
- Mean (Ca2+ signal time course, Figure 4f) (0.3 µM, time 25 s): 0.00251
- Mean (Ca2+ signal time course, Figure 4f) (0.3 µM, time 30 s): -0.3502
- Mean (Ca2+ signal time course, Figure 4f) (0.3 µM, time 35 s): 0.104
- Mean (Ca2+ signal time course, Figure 4f) (0.3 µM, time 40 s): 0.09692
- Mean (Ca2+ signal time course, Figure 4f) (0.3 µM, time 45 s): 0.1007
- Mean (Ca2+ signal time course, Figure 4f) (0.3 µM, time 50 s): 0.1032
- Mean (Ca2+ signal time course, Figure 4f) (0.3 µM, time 55 s): 0.1237
- Mean (Ca2+ signal time course, Figure 4f) (0.3 µM, time 60 s): 0.09438
- Mean (Ca2+ signal time course, Figure 4f) (0.3 µM, time 65 s): 0.1134
- Mean (Ca2+ signal time course, Figure 4f) (0.3 µM, time 70 s): 0.1058
- Mean (Ca2+ signal time course, Figure 4f) (0.3 µM, time 75 s): 0.1024
- Mean (Ca2+ signal time course, Figure 4f) (0.3 µM, time 80 s): 0.1081
- Mean (Ca2+ signal time course, Figure 4f) (0.3 µM, time 85 s): 0.0998
- Mean (Ca2+ signal time course, Figure 4f) (0.3 µM, time 90 s): 0.09979
- Mean (Ca2+ signal time course, Figure 4f) (0.3 µM, time 95 s): 0.1117
- Mean (Ca2+ signal time course, Figure 4f) (0.3 µM, time 100 s): 0.1219
- Mean (Ca2+ signal time course, Figure 4f) (0.3 µM, time 105 s): 0.1074
- Mean (Ca2+ signal time course, Figure 4f) (0.3 µM, time 110 s): 0.1111
- Mean (Ca2+ signal time course, Figure 4f) (0.3 µM, time 115 s): 0.1145
- Mean (Ca2+ signal time course, Figure 4f) (0.3 µM, time 120 s): 0.1043
- Mean (Ca2+ signal time course, Figure 4f) (0.3 µM, time 125 s): 0.1036
- Mean (Ca2+ signal time course, Figure 4f) (0.3 µM, time 130 s): 0.08711
- Mean (Ca2+ signal time course, Figure 4f) (3 µM, time 0 s): -0.0026
- Mean (Ca2+ signal time course, Figure 4f) (3 µM, time 5 s): -0.00676
- Mean (Ca2+ signal time course, Figure 4f) (3 µM, time 10 s): -0.01186
- Mean (Ca2+ signal time course, Figure 4f) (3 µM, time 15 s): -0.00542
- Mean (Ca2+ signal time course, Figure 4f) (3 µM, time 20 s): 0.01045
- Mean (Ca2+ signal time course, Figure 4f) (3 µM, time 25 s): 0.0162
- Mean (Ca2+ signal time course, Figure 4f) (3 µM, time 30 s): -0.5301
- Mean (Ca2+ signal time course, Figure 4f) (3 µM, time 35 s): -0.09017
- Mean (Ca2+ signal time course, Figure 4f) (3 µM, time 40 s): 0.3419
- Mean (Ca2+ signal time course, Figure 4f) (3 µM, time 45 s): 0.4568
- Mean (Ca2+ signal time course, Figure 4f) (3 µM, time 50 s): 0.5783
- Mean (Ca2+ signal time course, Figure 4f) (3 µM, time 55 s): 0.623
- Mean (Ca2+ signal time course, Figure 4f) (3 µM, time 60 s): 0.705
- Mean (Ca2+ signal time course, Figure 4f) (3 µM, time 65 s): 0.7592
- Mean (Ca2+ signal time course, Figure 4f) (3 µM, time 70 s): 0.7946
- Mean (Ca2+ signal time course, Figure 4f) (3 µM, time 75 s): 0.8127
- Mean (Ca2+ signal time course, Figure 4f) (3 µM, time 80 s): 0.8608
Compound: Clc1cccc(Cl)c1CSc1nnc(-c2cnccn2)s1 [Yoda1]
